Source: patent US9216973B2, “Insecticidal compounds” (Syngenta Participations AG, priority 2008, dated 2015)

Assays:
[1] = system: Plutella xylostella (Diamond back moth); assay: Plutella xylostella larvae test on artificial diet; type: in vivo; settings: for effect on mortality, feeding behavior, or growth regulation: same protocol, 200 ppm; for pest or weed control at 200 ppm: 144 h, 200 ppm (concentration in well 18 ppm), artificial diet, L2 larvae, larval mortality and growth regulation after 6 days
Description: (§1) This Example illustrates the insecticidal and acaricidal properties of compounds of formula (I). The tests were performed as follows:
(§2) Cotton leaf discs were placed on agar in a 24-well microtiter plate and sprayed with test solutions at an application rate of 200 ppm. After drying, the leaf discs were infested with 5 L1 larvae. The samples were checked for mortality, feeding behavior, and growth regulation 3 days after treatment (DAT). The following compound gave at least 80% control of Spodoptera littoralis: A1, A2, A5, A6, A7, A8, A10, A11, A12, A13, A14, A15, A16, A17, A18, A19, A21, A22, A23, A24, A25, A30, A31, A32, A33, A34, A35, A39, A40, A41 A42, A43, A44, A45, A46, A47, A48, A49, A50, A51, A53, A54, A55, A59, A60, A61, A62. Heliothis virescens (Tobacco budworm): Eggs (0-24 h old) were placed in 24-well microtiter plate on artificial diet and treated with test solutions at an application rate of 200 ppm (concentration in well 18 ppm) by pipetting. After an incubation period of 4 days, samples were checked for egg mortality, larval mortality, and growth regulation. The following compound gave at least 80% control of Heliothis virescens: A1, A2, A3, A4, A5, A6, A7, A8, A10, A11, A12, A13, A14, A15, A16, A18, A19, A21, A22, A24, A25, A30, A31, A32, A33, A34, A35, A37, A38, A39, A40, A42, A43, A44, A45, A46, A47, A48, A49, A50, A51, A55, AA57, A58, A59, A60, A61, A62. Plutella xylostella (Diamond back moth): 24-well microtiter plate (MTP) with artificial diet was treated with test solutions at an application rate of 200 ppm (concentration in well 18 ppm) by pipetting. After drying, the MTP's were infested with L2 larvae (7-12 per well). After an incubation period of 6 days, samples were checked for larval mortality and growth regulation. The following compound gave at least 80% control of Plutella xylostella: A1, A2, A5, A6, A7, A8, A9, A10, A11, A12, A13, A14, A15, A16, A17, A18, A19, A20, A21, A22, A24, A25, A30, A31, A32, A33, A34, A35, A37, A38, A39, A40, A42, A43, A44, A45, A46, A47, A48, A49, A50, A51, A52, A53, A54, A55, A57, A58, A59, A60, A61, A62, B3. Diabrotica balteata (Corn root worm): A 24-well microtiter plate (MTP) with artificial diet was treated with test solutions at an application rate of 200 ppm (concentration in well 18 ppm) by pipetting. After drying, the MTP's were infested with L2 larvae (6-10 per well). After an incubation period of 5 days, samples were checked for larval mortality and growth regulation. The following compound gave at least 80% control of Diabrotica balteata: A1, A2, A5, A6, A7, A10, A11, A12, A13, A14, A15, A16, A17, A18, A19, A21, A22, A24, A25, A30, A31, A32, A33, A34, A35, A38, A39, A40, A42, A43, A44, A45, A46, A47, A48, A49, A50, A59, A60, A61, A62. Thrips tabaci (Onion thrips): Sunflower leaf discs were placed on agar in a 24-well microtiter plate and sprayed with test solutions at an application rate of 200 ppm. After drying, the leaf discs were infested with an […] population of mixed ages. After an incubation period of 7 days, samples were checked for mortality. The following compounds gave at least 80% control of Thrips tabaci: A1, A2, A5, A6, A7, A8, A10, A12, A13, A14, A15, A16, A17, A18, A19, A21, A24, A25, A30, A31, A32, A33, A34, A35, A39, A42, A43, A44, A45, A46, A47, A48, A49, A50, A51, A53, A54, A57, A58, A59, A60, A61, A62. Tetranychus urticae (Two-spotted spider mite): Bean leaf discs on agar in 24-well microtiter plates were sprayed with test solutions at an application rate of 200 ppm. After drying, the leaf discs are infested with mite populations of mixed ages. 8 days later, discs are checked for egg mortality, larval mortality, and adult mortality. The following compound gave at least 80% control of Tetranychus urticae: A1, A2, A4, A5, A6, A7, A8, A10, A11, A12, A13, A14, A15, A16, A17, A18, A19, A20, A21, A22, A30, A31, A32, A33, A34, A35, A39, A40, A41, A42, A43, A44, A45, A46, A47, A48, A49, A50, A51, A53, A54, A55, A57, A59, A60, A61, A62.

[2] = system: Tetranychus urticae (Two-spotted spider mite); assay: Tetranychus urticae bean leaf disc spray test; type: in vivo; settings: for effect on mortality, feeding behavior, or growth regulation: same protocol, 200 ppm; for pest or weed control at 200 ppm: foliar, 192 h, 200 ppm spray on bean leaf discs, mite populations of mixed ages, egg, larval and adult mortality 8 days later, read-out: control of Tetranychus urticae
Description: as §1, §2

With `Cc1nc2c(C3=NOC(c4cc(Cl)cc(Cl)c4)(C(F)(F)F)C3)ccc(C(=O)NC3CS(=O)(=O)C3)c2o1` (stereo not shown) [A26] the “effect on mortality, feeding behavior, or growth regulation” value (“effect on mortality, feeding behavior” for short) [1] was “little or no effect” and the “effect on mortality, feeding behavior” value [2] was “little or no effect”.

With `Cc1nc2c(C3=NOC(c4cc(Cl)cc(Cl)c4)(C(F)(F)F)C3)ccc(C(=O)NC3(C)CSC3)c2o1` (stereo not shown) [A27] the “effect on mortality, feeding behavior” value [1] was “little or no effect” and the “effect on mortality, feeding behavior” value [2] was “little or no effect”.

In the case of `Cc1nc2c(C3=NOC(c4cc(Cl)cc(Cl)c4)(C(F)(F)F)C3)ccc(C(=O)NC3C[S+]([O-])C3)c2o1` (stereo not shown) [A28], the “effect on mortality, feeding behavior” value [1] is reported as “little or no effect” and the “effect on mortality, feeding behavior” value [2] is reported as “little or no effect”.

For `Cc1nc2c(C3=NOC(c4cc(Cl)cc(Cl)c4)(C(F)(F)F)C3)ccc(C(=O)NC3CSC3)c2o1` (stereo not shown) [A29], the “effect on mortality, feeding behavior” value [1] was “little or no effect” and the “effect on mortality, feeding behavior” value [2] was “little or no effect”.

`Cc1cc(C2=NOC(c3cc(Cl)cc(Cl)c3)(C(F)(F)F)C2Cl)ccc1C(=O)NC1CS(=O)(=O)C1` (stereo not shown) [A32] was tested, and the pest or weed control at 200 ppm [1] was at least 80% and the pest or weed control at 200 ppm [2] was at least 80%.

In the case of `Cc1cc(C2=NOC(c3cc(Cl)cc(Cl)c3)(C(F)(F)F)C2Cl)ccc1C(=O)NC1(C)CSC1` (stereo not shown) [A33], the pest or weed control at 200 ppm [1] is reported as at least 80% and the pest or weed control at 200 ppm [2] is reported as at least 80%.

`Cc1cc(C2=NOC(c3cc(Cl)cc(Cl)c3)(C(F)(F)F)C2Cl)ccc1C(=O)NC1C[S+]([O-])C1` (stereo not shown) [A34] showed a pest or weed control at 200 ppm [1] of at least 80% and a pest or weed control at 200 ppm [2] of at least 80%.

`CC1(NC(=O)c2cccc3c(C4=NOC(c5cc(Cl)cc(Cl)c5)(C(F)(F)F)C4)cccc23)CSC1` (stereo not shown) [A36] was tested, and the “effect on mortality, feeding behavior” value [1] was “little or no effect” and the “effect on mortality, feeding behavior” value [2] was “little or no effect”.

In the case of `O=C(NC1CS(=O)(=O)C1)c1ccc(C2=NOC(c3cc(Cl)cc(Cl)c3)(C(F)(F)F)C2Br)c2ccccc12` (stereo not shown) [A42], the pest or weed control at 200 ppm [1] is reported as at least 80% and the pest or weed control at 200 ppm [2] is reported as at least 80%.

`CC1(NC(=O)c2ccc(C3=NOC(c4cc(Cl)cc(Cl)c4)(C(F)(F)F)C3Br)c3ccccc23)CSC1` (stereo not shown) [A43] showed a pest or weed control at 200 ppm [1] of at least 80% and a pest or weed control at 200 ppm [2] of at least 80%.

With `O=C(NC1C[S+]([O-])C1)c1ccc(C2=NOC(c3cc(Cl)cc(Cl)c3)(C(F)(F)F)C2Br)c2ccccc12` (stereo not shown) [A44] the pest or weed control at 200 ppm [1] was at least 80% and the pest or weed control at 200 ppm [2] was at least 80%.

Compound `Cc1cc(C2=NCC(c3cc(Cl)cc(Cl)c3)(C(F)(F)F)C2)ccc1C(=O)NC1CS(=O)(=O)C1` (stereo not shown) [A46] has a pest or weed control at 200 ppm [1] of at least 80% and a pest or weed control at 200 ppm [2] of at least 80%.

Compound `Cc1cc(C2=NCC(c3cc(Cl)cc(Cl)c3)(C(F)(F)F)C2)ccc1C(=O)NC1(C)CSC1` (stereo not shown) [A47] has a pest or weed control at 200 ppm [1] of at least 80% and a pest or weed control at 200 ppm [2] of at least 80%.

Compound `Cc1cc(C2=NCC(c3cc(Cl)cc(Cl)c3)(C(F)(F)F)C2)ccc1C(=O)NC1C[S+]([O-])C1` (stereo not shown) [A48] has a pest or weed control at 200 ppm [1] of at least 80% and a pest or weed control at 200 ppm [2] of at least 80%.

`Cc1cc(C2=NCC(c3cc(Cl)cc(Cl)c3)(C(F)(F)F)C2)ccc1C(=O)NC1CSC1` (stereo not shown) [A49] showed a pest or weed control at 200 ppm [1] of at least 80% and a pest or weed control at 200 ppm [2] of at least 80%.

For `Cc1cc(C2=NOC(c3cc(Cl)cc(Cl)c3)(C(F)(F)F)C2O)ccc1C(=O)NC1CS(=O)(=O)C1` (stereo not shown) [A51], the pest or weed control at 200 ppm [1] was at least 80% and the pest or weed control at 200 ppm [2] was at least 80%.

`Cc1cc(C2=NOC(c3cc(Cl)cc(Cl)c3)(C(F)(F)F)C2O)ccc1C(=O)NC1C[S+]([O-])C1` (stereo not shown) [A53] showed a pest or weed control at 200 ppm [1] of at least 80% and a pest or weed control at 200 ppm [2] of at least 80%.
